One experiment deals with Leishmania major. Briefly: In vivo anti-leishmanial activity, lesion size in infected mice under oral treatment. To be noted: for Mean + SD lesion size(mm), day 1 of treatment: day 1 of oral treatment; for Mean + SD lesion size(mm), day 1 of treatment / Mean + SD lesion size(mm), day 4 of treatment / Mean + SD lesion size(mm), day 8 of treatment / Mean + SD lesion size(mm), day 11 of treatment / Mean + SD lesion size(mm), day 15 of treatment / Mean + SD lesion size(mm), day 18 of treatment / Mean + SD lesion size(mm), day 25 of treatment / Mean + SD lesion size(mm), day 28 of treatment: mice infected with L.major, n = 6; for Mean + SD lesion size(mm), day 4 of treatment: day 4 of oral treatment; for Mean + SD lesion size(mm), day 8 of treatment: day 8 of oral treatment; for Mean + SD lesion size(mm), day 11 of treatment: day 11 of oral treatment; for Mean + SD lesion size(mm), day 15 of treatment: day 15 of oral treatment; for Mean + SD lesion size(mm), day 18 of treatment: day 18 of oral treatment; for Mean + SD lesion size(mm), day 25 of treatment: day 25 of oral treatment; for Mean + SD lesion size(mm), day 28 of treatment: day 28 of oral treatment. How it is done:
Balb/c mice ([…]) males were provided by Girls collage of science, Zoology department, King Saud University, Riyadh, KSA). The animals were housed in standard plastic cages and were maintained on standard feed and water ad libitum.
Each mouse was inoculated in the lumbar area with 10^7 of stationary phase Leishmania major suspended in 0.1 ml RPMI medium. The mice were kept at the animal house for 3-4 weeks till the lesion was observed. Extracts were administrated orally (400 mg/kg mouse body weight) daily until complete recovery from the lesion. Liver functions tests and histopathological examination of organs (liver, spleen and kidney) were done at the end of study.

Experiment [1] deals with Promastigotes of the reference strain of Leishmania major. The experiment in a line: In vitro anti-leishmanial activity, MTT assay on promastigotes. It is filed as cell-based. To be noted: 72 hours, 26 °C. How it is done: Parasite: Promastigotes of the reference strain of Leishmania major were grown in RPMI-1640 medium supplemented with 10.000 Unites penicillin 10 µg of treptomycin/ml and 10 % heat inactivated fetal calf serum in 50 ml Nunc flasks at 26 °C in a dark environment. All experiments were performed with parasite cultures in the stationary phase by allowing them to grow for seven days.
Promastigotes were resuspended in fresh medium to achieve 10^6 parasites/ml and were seeded in 96-well Nunc culture plate, each well containing 100 µl medium with different concentrations of total extracts for both fungi (Drechslera rostrata and Eurotium tonophilum) in addition to the four isolated compounds. Control wells received only culture medium. The plates were incubated in 26 °C for 72 hours and Promastigotes viability was evaluated by the quantitative colorimetric MTT assay. The alteration of MTT to the formazan product by the mitochondrial electron transport chain is an indicator of cell viability, and a decrease in the amount of MTT converted indicated toxicity to the cell.
Briefly, the MTT labeling reagent was added to each well to the final concentration of 0.25 mg/ml. After incubation for 3 hours at 26 °C, DMSO was added to dissolve the formazan crystals and obtain a homogeneous blue solution suitable for measurement of the absorbance with an enzyme-linked immunosorbent assay plate reader (wave length 492).
Percent growth inhibition of the parasite was calculated by the following formula: % of inhibition = ((OD control-OD drugs))/(OD control) X 100 [formula]
The concentration inhibiting 50 % of the parasite growth (IC50) was calculated after evaluating percent growth inhibition at different concentrations. Reference compound was Pentostam.
Stock solutions of the total extracts , compounds, plus control drugs, were prepared at a concentration of 20 mg mL-1 in DMSO (Sigma, UK), and diluted to appropriate concentrations prior to assays. IC50 values were calculated with MSXLFIT (IDBS, UK) Djalma et al., J. Braz. Chem. Soc. Vol. 20, No. 4, 644-651, (2009).

The test system of experiment [2] is leishmania. To be noted: against leishmania; cited from earlier work.
The subject of experiment [3] is leishmania. To be noted: antileishmanial activity; cited from earlier work.
In the next experiment the test system is Leishmania amazonensis. The following applies: growth of Leishmania amazonensis; cited from earlier work.
A further experiment deals with Leishmania spp. The following applies: growth of Leishmania spp; cited from earlier work.

Consider eight compounds from patent EP2735339B1, “Extract and isolated compounds from Drechslera rostrata and/or Eurotium tonophilum for use as anti-leishmania-major agents” (King Saud University, priority 2012, dated 2014).

≈ marks a conversion by molar mass, not a printed value. Read-outs that look alike come from different tables or passages of the source.

Turning to “1,8-Dihydroxy-3-methoxy-6-methyl-anthraquinone [Compound H3]”, in the experiment with Leishmania major, the “Mean + SD lesion size(mm), day 1 of treatment” value is recorded as 9.23±1.4 mm; the “Mean + SD lesion size(mm), day 4 of treatment” value was 7.28±2.1 mm; the “Mean + SD lesion size(mm), day 8 of treatment” value was 5.15±1.4 mm; the “Mean + SD lesion size(mm), day 11 of treatment” value came to 3.41±1.8 mm. Further, in the experiment with Leishmania major, the “Mean + SD lesion size(mm), day 15 of treatment” value was determined as 2.31±2.6 mm; the “Mean + SD lesion size(mm), day 18 of treatment” value is given as “zero”; the “Mean + SD lesion size(mm), day 25 of treatment” value is on record as “zero”; the “Mean + SD lesion size(mm), day 28 of treatment” value is “zero”. The compound further had an IC50 in experiment [1] of 19.38 µg/mL.

On to `C=CCCC/C=C\C/C=C\CCCCCCCc1cc(O)cc(O)c1` [5-heptadeca-8'Z,11'Z,16-trienylresorcinol], for which, in the experiment on leishmania [2], the IC50 is listed as 3.6 µg/mL (≈ 10.5 µM).

On to `OCC(O)C(O)C(O)C(O)CO` (stereo not shown) [Compound H1, Hexane-1,2,3,4,5,6-hexol], for which, in the experiment with Leishmania major, the “Mean + SD lesion size(mm), day 1 of treatment” value came out at 9.95±1.5 mm; the “Mean + SD lesion size(mm), day 4 of treatment” value is 7.19±1.2 mm; the “Mean + SD lesion size(mm), day 8 of treatment” value came out at 4.85±1.2 mm; the “Mean + SD lesion size(mm), day 11 of treatment” value is 2.78±1.7 mm. In the experiment on Leishmania major, the “Mean + SD lesion size(mm), day 15 of treatment” value was 1.21+1.1 mm; the “Mean + SD lesion size(mm), day 18 of treatment” value is recorded as “zero”; the “Mean + SD lesion size(mm), day 25 of treatment” value is “zero”; the “Mean + SD lesion size(mm), day 28 of treatment” value was “zero”. Moreover, in experiment [1] (read-out: IC50), the IC50 amounted to 6.5 µg/mL (≈ 35.7 µM).

In the case of `O.O.O.O.O.O.O.O.O.O=C([O-])[C@@H]1[O][Sb](=[O])([O][Sb]2(=[O])[O][C@H]([C@H](O)CO)[C@H](O)[C@H](C(=O)[O-])[O]2)[O][C@H]([C@H](O)CO)[C@@H]1O.[Na+].[Na+].[Na+]` (stereo partly shown) [Pentostam, reference compound], in the experiment with Leishmania major, the “Mean + SD lesion size(mm), day 1 of treatment” value was 9.56±1.3 mm; the “Mean + SD lesion size(mm), day 4 of treatment” value is recorded as 8.98±2.0 mm; the “Mean + SD lesion size(mm), day 8 of treatment” value is on record as 7.45±1.8 mm; the “Mean + SD lesion size(mm), day 11 of treatment” value was 6.9±1.3 mm. Moreover, in the experiment on Leishmania major, the “Mean + SD lesion size(mm), day 15 of treatment” value amounted to 5.39±3.1 mm; the “Mean + SD lesion size(mm), day 18 of treatment” value is 4.32±2.1 mm; the “Mean + SD lesion size(mm), day 25 of treatment” value is given as 3.30±2.1 mm; the “Mean + SD lesion size(mm), day 28 of treatment” value came out at 2.61±2.5 mm. Further, in the experiment with Leishmania major (standard drug, 28 days), the “complete heeling after 28 days” value is on record as “did not show complete heeling”.

With `C/C=C(/C)C(=O)OC[C@H]1C2=C(C[C@H]3[C@H]4C5=C(C(=O)C(C)=C(OC)C5=O)[C@H](O)[C@@H](CN13)N4C)C(=O)C(C)=C(OC)C2=O` [Renieramycin A], the IC50 in the experiment with leishmania [3] was 0.2 µg·mL.

As to `C=C1C(=O)O[C@H]2C[C@@](C)(O)C3=CC[C@](C)(O)[C@@H]3C[C@H]12` [guaianolide], the IC50 in the experiment on Leishmania amazonensis is 2.6 µg/mL (≈ 9.84 µM).

Consider `C=C1CCC[C@H]2[C@]1(CC[C@@]1(C)C3=CCCC(C)(C)[C@@H]3CC[C@@H]1C)CC[C@H](C)[C@]2(C)Cc1cc(OS(=O)(=O)O)ccc1OS(=O)(=O)O` [isoakaterpin], for which the IC50 in the experiment on Leishmania spp was 1050 nM.

As to Diisooctylphthalate [Compound H2], in the experiment with Leishmania major, the “Mean + SD lesion size(mm), day 1 of treatment” value is given as 9.13±1.2 mm; the “Mean + SD lesion size(mm), day 4 of treatment” value stood at 6.18±1.2 mm; the “Mean + SD lesion size(mm), day 8 of treatment” value is listed as 4.15±1.2 mm; the “Mean + SD lesion size(mm), day 11 of treatment” value was determined as 1.11±1.2 mm. Further, in the experiment on Leishmania major, the “Mean + SD lesion size(mm), day 15 of treatment” value came to 0.21±1.5 mm; the “Mean + SD lesion size(mm), day 18 of treatment” value is on record as “zero”; the “Mean + SD lesion size(mm), day 25 of treatment” value is “zero”; the “Mean + SD lesion size(mm), day 28 of treatment” value is “zero”. Also, the IC50 in experiment [1] is 3.2 µg/mL.
